Measured values taken from patent US7396837B2, “Antitumoral analogs of lamellarins” (Pharma Mar, S.A.U., priority 2002, dated 2008).
Read-outs that look alike come from different tables or passages of the source.

Assays:
Assay type in all cases: cell-based
HeLa-APL = assay: SRB colorimetric cell growth inhibition assay, HeLa-APL (aplidine resistant); conditions: Homo sapiens; for GI50: read-out: GI50 HELA-APL; for CC50: read-out: LC50 HELA-APL; for IC (TGI): read-out: TGI HELA-APL
Outline: (§1)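 Continuous-exposure format, human tumour lines. SRB colour reaction quantifies growth/viability. Triplicate wells → mean ± SD → GI, TGI, LC.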

HT-29 = assay: SRB colorimetric cell growth inhibition assay, HT-29; conditions: Homo sapiens
Outline: as §1

LNCaP = assay: SRB colorimetric cell growth inhibition assay, LNCaP; conditions: Homo sapiens, LNCaP; for GI50: read-out: GI50 LN-caP; for CC50: read-out: LC50 LN-caP; for IC (TGI): read-out: TGI LN-caP
Source text: (§2) The finality of these assays is to interrupt the growth of an “in vitro” tumor cell culture by means a continued exhibition of the cells to the sample to be testing.
(§3) A colorimetric type of assay, using sulforhodamine B (SRB) reaction has been adapted for a quantitative measurement of cell growth and viability (following the technique described by P. A. Skehan, et al., J. Natl. Cancer Inst. 1990, 82, 1107-1112).
(§4) This form of assay employs 96 well cell culture microplates of 9 mm diameter (T. Mosmann et al., J. of Immunological Methods 1983, 65, 55-63; G. T. Faircloth et al., J. of Tissue and Culture Methods 1988, 11, 201-205).
(§5) Most of the cell lines are obtained from American Type Culture Collection (ATCC) derived from different human cancer types.
(§6) The values for mean +/− SD of data from triplicate wells are calculated. Some parameters for cellular responses can be calculated: GI=growth inhibition, TGI=total growth inhibition (cytostatic effect) and LC=cell killing (cytotoxic effect).

K-562 = assay: SRB colorimetric cell growth inhibition assay, K-562; conditions: Homo sapiens
Source text: as §2, §3, §4, §5, §6

HeLa = assay: SRB colorimetric cell growth inhibition assay, HeLa; conditions: Homo sapiens, HeLa; for GI50: read-out: GI50 HELA; for CC50: read-out: LC50 HELA; for IC (TGI): read-out: TGI HELA
Outline: as §1

PANC-1 = assay: SRB colorimetric cell growth inhibition assay, PANC-1; conditions: Homo sapiens
Outline: as §1

LoVo = assay: SRB colorimetric cell growth inhibition assay, LoVo; conditions: Homo sapiens, LoVo; for GI50: read-out: GI50 LOVO; for CC50: read-out: LC50 LOVO; for IC (TGI): read-out: TGI LOVO
Outline: as §1

LoVo-Dox = assay: SRB colorimetric cell growth inhibition assay, LoVo-Dox (MDR); conditions: Homo sapiens; for GI50: read-out: GI50 LOVO-DOX; for CC50: read-out: LC50 LOVO-DOX; for IC (TGI): read-out: TGI LOVO-DOX
Outline: as §1

IGROV-ET = assay: SRB colorimetric cell growth inhibition assay, IGROV-ET (ET-743 resistant); conditions: Homo sapiens; for GI50: read-out: GI50 IGROV-ET; for CC50: read-out: LC50 IGROV-ET; for IC (TGI): read-out: TGI IGROV-ET
Outline: as §1

SK-BR-3 = assay: SRB colorimetric cell growth inhibition assay, SK-BR-3; conditions: Homo sapiens
Outline: as §1

SK-MEL-28 = assay: SRB colorimetric cell growth inhibition assay, SK-MEL-28; conditions: Homo sapiens
Outline: as §1

A-549 = assay: SRB colorimetric cell growth inhibition assay, A-549; conditions: Homo sapiens
Outline: as §1

DU-145 = assay: SRB colorimetric cell growth inhibition assay, DU-145; conditions: Homo sapiens
Outline: as §1

IGROV = assay: SRB colorimetric cell growth inhibition assay, IGROV; conditions: Homo sapiens, IGROV; for GI50: read-out: GI50 IGROV; for CC50: read-out: LC50 IGROV; for IC (TGI): read-out: TGI IGROV
Outline: as §1

[1] = cell killing (cytotoxic effect)
[2] = total growth inhibition (cytostatic effect)

Structure (SMILES): COc1cc(-c2c3c4cc(OC)c(OC(=O)[C@H](C)NC(=O)[C@H](C)NC(=O)OC(C)(C)C)cc4oc(=O)c3n3ccc4c(OC(=O)[C@H](C)NC(=O)[C@H](C)NC(=O)OC(C)(C)C)c(OC)c(OC)cc4c23)ccc1OC(=O)[C@H](C)NC(=O)[C@H](C)NC(=O)OC(C)(C)C [Compound 6]
- GI50 (HeLa-APL): 3.41 µM
- CC50 (HeLa-APL): 7.96 µM
- IC (TGI) (HeLa-APL): 7.96 µM
- GI50 (HT-29; HT-29, read-out: GI50 HT-29): 7.96 µM
- CC50 (HT-29; HT-29, read-out: LC50 HT-29): 7.96 µM
- IC (TGI) (HT-29; HT-29, read-out: TGI HT-29): 7.96 µM
- GI50 (LNCaP): 0.578 µM
- CC50 (LNCaP): 7.96 µM
- IC (TGI) (LNCaP): 7.96 µM
- GI50 (K-562; K562, read-out: GI50 K-562): 0.482 µM
- CC50 (K-562; K562, read-out: LC50 K-562): 7.96 µM
- IC (TGI) (K-562; K562, read-out: TGI K-562): 5.38 µM
- GI50 (HeLa): 0.584 µM
- CC50 (HeLa): 7.96 µM
- IC (TGI) (HeLa): 7.96 µM
- GI50 (PANC-1; PANC-1, read-out: GI50 PANC-1): 2.46 µM
- CC50 (PANC-1; PANC-1, read-out: LC50 PANC-1): 7.96 µM
- IC (TGI) (PANC-1; PANC-1, read-out: TGI PANC-1): 7.96 µM
- GI50 (LoVo): 2.79 µM
- CC50 (LoVo): 7.96 µM
- IC (TGI) (LoVo): 7.96 µM
- GI50 (LoVo-Dox): 3.84 µM
- CC50 (LoVo-Dox): 7.96 µM
- IC (TGI) (LoVo-Dox): 7.96 µM
- GI50 (IGROV-ET): 1.39 µM
- CC50 (IGROV-ET): 7.96 µM
- IC (TGI) (IGROV-ET): 7.96 µM
- GI50 (SK-BR-3; SK-BR-3, read-out: GI50 SK-BR-3): 0.548 µM
- CC50 (SK-BR-3; SK-BR-3, read-out: LC50 SK-BR-3): 7.96 µM
- IC (TGI) (SK-BR-3; SK-BR-3, read-out: TGI SK-BR-3): 2.56 µM
- GI50 (SK-MEL-28; SK-MEL-28, read-out: GI50 MEL-28): 0.386 µM
- CC50 (SK-MEL-28; SK-MEL-28, read-out: LC50 MEL-28): 7.96 µM
- IC (TGI) (SK-MEL-28; SK-MEL-28, read-out: TGI MEL-28): 1.74 µM
- GI50 (A-549; A549, read-out: GI50 A-549): 0.497 µM
- CC50 (A-549; A549, read-out: LC50 A-549): 7.96 µM
- IC (TGI) (A-549; A549, read-out: TGI A-549): 7.96 µM
- GI50 (DU-145; DU-145, read-out: GI50 DU-145): 0.355 µM
- CC50 (DU-145; DU-145, read-out: LC50 DU-145): 7.96 µM
- IC (TGI) (DU-145; DU-145, read-out: TGI DU-145): 1.46 µM
- GI50 (IGROV): 0.963 µM
- CC50 (IGROV): 7.96 µM
- IC (TGI) (IGROV): 7.96 µM

Structure (SMILES): COc1cc(-c2c3c4cc(OC)c(OC(=O)CCc5ccccc5)cc4oc(=O)c3n3ccc4cc(OC(=O)CCc5ccccc5)c(OC)cc4c23)ccc1OC(=O)CCc1ccccc1 [Compound 8]
- GI50 (HeLa-APL; HELA-APL, GI=growth inhibition): 7.3 µM
- CC50 (HeLa-APL; HELA-APL, cell killing (cytotoxic effect)): 11.2 µM
- IC (TGI) (HeLa-APL; HELA-APL, total growth inhibition (cytostatic effect)): 11.2 µM
- GI50 (HT-29; HT-29, HT-29, GI=growth inhibition, read-out: GI50 HT-29): 0.377 µM
- CC50 (HT-29; HT-29, HT-29, cell killing (cytotoxic effect), read-out: LC50 HT-29): 11.2 µM
- IC (TGI) (HT-29; HT-29, HT-29, total growth inhibition (cytostatic effect), read-out: TGI HT-29): 11.2 µM
- GI50 (LNCaP; LN-caP, GI=growth inhibition): 0.654 µM
- CC50 (LNCaP; LN-caP, cell killing (cytotoxic effect)): 7.21 µM
- IC (TGI) (LNCaP; LN-caP, total growth inhibition (cytostatic effect)): 2.47 µM
- GI50 (K-562; K562, K-562, GI=growth inhibition, read-out: GI50 K-562): 0.225 µM
- CC50 (K-562; K562, K-562, cell killing (cytotoxic effect), read-out: LC50 K-562): 7.49 µM
- IC (TGI) (K-562; K562, K-562, total growth inhibition (cytostatic effect), read-out: TGI K-562): 1.57 µM
- GI50 (HeLa; GI=growth inhibition): 0.276 µM
- CC50 (HeLa; [1]): 7.92 µM
- IC (TGI) (HeLa; [2]): 1.41 µM
- GI50 (PANC-1; PANC-1, PANC-1, GI=growth inhibition, read-out: GI50 PANC-1): 0.231 µM
- CC50 (PANC-1; PANC-1, PANC-1, cell killing (cytotoxic effect), read-out: LC50 PANC-1): 11.2 µM
- IC (TGI) (PANC-1; PANC-1, PANC-1, total growth inhibition (cytostatic effect), read-out: TGI PANC-1): 0.865 µM
- GI50 (LoVo; GI=growth inhibition): 1.48 µM
- CC50 (LoVo; [1]): 11.2 µM
- IC (TGI) (LoVo; [2]): 4.68 µM
- GI50 (LoVo-Dox; LOVO-DOX, GI=growth inhibition): 8.34 µM
- CC50 (LoVo-Dox; LOVO-DOX, cell killing (cytotoxic effect)): 11.2 µM
- IC (TGI) (LoVo-Dox; LOVO-DOX, total growth inhibition (cytostatic effect)): 11.2 µM
- GI50 (IGROV-ET; IGROV-ET, GI=growth inhibition): 3.35 µM
- CC50 (IGROV-ET; IGROV-ET, cell killing (cytotoxic effect)): 11.2 µM
- IC (TGI) (IGROV-ET; IGROV-ET, total growth inhibition (cytostatic effect)): 11.2 µM
- GI50 (SK-BR-3; SK-BR-3, SK-BR-3, GI=growth inhibition, read-out: GI50 SK-BR-3): 0.915 µM
- CC50 (SK-BR-3; SK-BR-3, SK-BR-3, cell killing (cytotoxic effect), read-out: LC50 SK-BR-3): 9.19 µM
- IC (TGI) (SK-BR-3; SK-BR-3, SK-BR-3, total growth inhibition (cytostatic effect), read-out: TGI SK-BR-3): 3.04 µM
- GI50 (SK-MEL-28; SK-MEL-28, MEL-28, GI=growth inhibition, read-out: GI50 MEL-28): 0.407 µM
- CC50 (SK-MEL-28; SK-MEL-28, MEL-28, cell killing (cytotoxic effect), read-out: LC50 MEL-28): 11.2 µM
- IC (TGI) (SK-MEL-28; SK-MEL-28, MEL-28, total growth inhibition (cytostatic effect), read-out: TGI MEL-28): 2.2 µM
- GI50 (A-549; A549, A-549, GI=growth inhibition, read-out: GI50 A-549): 0.744 µM
- CC50 (A-549; A549, A-549, cell killing (cytotoxic effect), read-out: LC50 A-549): 11.2 µM
- IC (TGI) (A-549; A549, A-549, total growth inhibition (cytostatic effect), read-out: TGI A-549): 6.34 µM
- GI50 (DU-145; DU-145, DU-145, GI=growth inhibition, read-out: GI50 DU-145): 0.703 µM
- CC50 (DU-145; DU-145, DU-145, cell killing (cytotoxic effect), read-out: LC50 DU-145): 9.43 µM
- IC (TGI) (DU-145; DU-145, DU-145, total growth inhibition (cytostatic effect), read-out: TGI DU-145): 2.6 µM
- GI50 (IGROV; GI=growth inhibition): 0.445 µM
- CC50 (IGROV; [1]): 11.2 µM
- IC (TGI) (IGROV; [2]): 2.17 µM
